Data reported in the supplement of paper PMC10307832.

Legend:
Assay in all cases: relative viability (nuclei count vs DMSO), 5 days (fraction); higher = more cells survive
BEN = tested on: BEN
Procedure, shortened: (§1)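 Lung cancer cell lines in 1536-well plates got either a single drug or a fixed anchor-drug dose together with five library-drug doses (not always all listed) in √10 steps, by pin tool, on the day after seeding. Nuclei were counted after 5 days, and relative viability is the treated-to-vehicle ratio of nuclei counts. Values are medians of duplicate plates.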

CAL-12T = tested on: CAL-12T
Procedure, shortened: as §1

EKVX = tested on: EKVX
Procedure, shortened: as §1

HCC-366 = tested on: HCC-366
Procedure, shortened: as §1

HCC-44 = tested on: HCC-44
Procedure, shortened: as §1

LOU-NH91 = tested on: LOU-NH91
Procedure, shortened: as §1

LU99A = tested on: LU99A
Procedure, shortened: as §1

NCI-H1355 = tested on: NCI-H1355
Procedure, shortened: as §1

NCI-H1395 = tested on: NCI-H1395
Procedure, shortened: as §1

NCI-H1437 = tested on: NCI-H1437
Procedure, shortened: as §1

NCI-H1563 = tested on: NCI-H1563
Procedure, shortened: as §1

NCI-H1650 = tested on: NCI-H1650
Procedure, shortened: as §1

NCI-H1651 = tested on: NCI-H1651
Procedure, shortened: as §1

NCI-H1734 = tested on: NCI-H1734
Procedure, shortened: as §1

NCI-H1755 = tested on: NCI-H1755
Procedure, shortened: as §1

NCI-H1975 = tested on: NCI-H1975
Procedure, shortened: as §1

NCI-H2023 = tested on: NCI-H2023
Procedure, shortened: as §1

NCI-H2085 = tested on: NCI-H2085
Procedure, shortened: as §1

NCI-H358 = tested on: NCI-H358
Procedure, shortened: as §1

NCI-H441 = tested on: NCI-H441
Procedure, shortened: as §1

NCI-H460 = tested on: NCI-H460
Procedure, shortened: as §1

NCI-H838 = tested on: NCI-H838
Procedure, shortened: as §1

C=C1C(=O)O[C@@H](CCCCCCCC)[C@@H]1C(=O)O [C-75] + CS(=O)(=O)N1CCN(Cc2cc3nc(-c4cccc5[nH]ncc45)nc(N4CCOCC4)c3s2)CC1 [Pictilisib] (partner 1 µM) showed a relative viability (BEN; first compound 0.08 µM) of 0.541, a relative viability (BEN; first compound 0.253 µM) of 0.651 and a relative viability (BEN; first compound 0.8 µM) of 0.538. It also gave a relative viability (BEN; first compound 2.53 µM) of 0.553, a relative viability (BEN; first compound 8 µM) of 0.443 and a relative viability (CAL-12T; first compound 0.08 µM) of 0.58. For the same compound, the relative viability (CAL-12T; first compound 0.253 µM) was 0.624, the relative viability (CAL-12T; first compound 0.8 µM) was 0.306 and the relative viability (CAL-12T; first compound 2.53 µM) was 0.292. The relative viability (CAL-12T; first compound 8 µM) was 0.486, the relative viability (EKVX; first compound 0.08 µM) was 0.436 and the relative viability (EKVX; first compound 0.253 µM) was 0.448. For the same compound, the relative viability (EKVX; first compound 0.8 µM) was 0.426, the relative viability (EKVX; first compound 2.53 µM) was 0.458 and the relative viability (EKVX; first compound 8 µM) was 0.452. The relative viability (HCC-366; first compound 0.08 µM) was 0.238, the relative viability (HCC-366; first compound 0.253 µM) was 0.165 and the relative viability (HCC-366; first compound 0.8 µM) was 0.152. The relative viability (HCC-366; first compound 2.53 µM) was 0.264, the relative viability (HCC-366; first compound 8 µM) was 0.148 and the relative viability (HCC-44; first compound 0.08 µM) was 0.65. For the same compound, the relative viability (HCC-44; first compound 0.253 µM) was 0.599, the relative viability (HCC-44; first compound 0.8 µM) was 0.558 and the relative viability (HCC-44; first compound 2.53 µM) was 0.622. For the same compound, the relative viability (HCC-44; first compound 8 µM) was 0.644, the relative viability (LOU-NH91; first compound 0.08 µM) was 0.555 and the relative viability (LOU-NH91; first compound 0.253 µM) was 0.602. For the same compound, the relative viability (LOU-NH91; first compound 0.8 µM) was 0.446, the relative viability (LOU-NH91; first compound 2.53 µM) was 0.406 and the relative viability (LOU-NH91; first compound 8 µM) was 0.461. The relative viability (LU99A; first compound 0.08 µM) was 0.281, the relative viability (LU99A; first compound 0.253 µM) was 0.306 and the relative viability (LU99A; first compound 0.8 µM) was 0.305. For the same compound, the relative viability (LU99A; first compound 2.53 µM) was 0.286, the relative viability (LU99A; first compound 8 µM) was 0.307 and the relative viability (NCI-H1355; first compound 0.08 µM) was 0.477. It also gave a relative viability (NCI-H1355; first compound 0.253 µM) of 0.48, a relative viability (NCI-H1355; first compound 0.8 µM) of 0.348 and a relative viability (NCI-H1355; first compound 2.53 µM) of 0.507. For the same compound, the relative viability (NCI-H1355; first compound 8 µM) was 0.465, the relative viability (NCI-H1395; first compound 0.08 µM) was 0.599 and the relative viability (NCI-H1395; first compound 0.253 µM) was 0.572. For the same compound, the relative viability (NCI-H1395; first compound 0.8 µM) was 0.539, the relative viability (NCI-H1395; first compound 2.53 µM) was 0.474 and the relative viability (NCI-H1395; first compound 8 µM) was 0.7. It also gave a relative viability (NCI-H1437; first compound 0.08 µM) of 0.489, a relative viability (NCI-H1437; first compound 0.253 µM) of 0.402 and a relative viability (NCI-H1437; first compound 0.8 µM) of 0.464. The relative viability (NCI-H1437; first compound 2.53 µM) was 0.472, the relative viability (NCI-H1437; first compound 8 µM) was 0.491 and the relative viability (NCI-H1563; first compound 0.08 µM) was 0.606. The relative viability (NCI-H1563; first compound 0.253 µM) was 0.681, the relative viability (NCI-H1563; first compound 0.8 µM) was 0.737 and the relative viability (NCI-H1563; first compound 2.53 µM) was 0.673. It also gave a relative viability (NCI-H1563; first compound 8 µM) of 0.63, a relative viability (NCI-H1650; first compound 0.08 µM) of 0.632 and a relative viability (NCI-H1650; first compound 0.253 µM) of 0.691. The relative viability (NCI-H1650; first compound 0.8 µM) was 0.521, the relative viability (NCI-H1650; first compound 2.53 µM) was 0.474 and the relative viability (NCI-H1650; first compound 8 µM) was 0.619. The relative viability (NCI-H1651; first compound 0.08 µM) was 0.466, the relative viability (NCI-H1651; first compound 0.253 µM) was 0.633 and the relative viability (NCI-H1651; first compound 0.8 µM) was 0.499. The relative viability (NCI-H1651; first compound 2.53 µM) was 1.04, the relative viability (NCI-H1651; first compound 8 µM) was 0.501 and the relative viability (NCI-H1734; first compound 0.08 µM) was 0.435. It also gave a relative viability (NCI-H1734; first compound 0.253 µM) of 0.428, a relative viability (NCI-H1734; first compound 0.8 µM) of 0.448 and a relative viability (NCI-H1734; first compound 2.53 µM) of 0.384. It also gave a relative viability (NCI-H1734; first compound 8 µM) of 0.367, a relative viability (NCI-H1755; first compound 0.08 µM) of 0.461 and a relative viability (NCI-H1755; first compound 0.253 µM) of 0.448. It also gave a relative viability (NCI-H1755; first compound 0.8 µM) of 0.389, a relative viability (NCI-H1755; first compound 2.53 µM) of 0.339 and a relative viability (NCI-H1755; first compound 8 µM) of 0.402. For the same compound, the relative viability (NCI-H1975; first compound 0.08 µM) was 0.286, the relative viability (NCI-H1975; first compound 0.253 µM) was 0.282 and the relative viability (NCI-H1975; first compound 0.8 µM) was 0.278. The relative viability (NCI-H1975; first compound 2.53 µM) was 0.326, the relative viability (NCI-H1975; first compound 8 µM) was 0.347 and the relative viability (NCI-H2023; first compound 0.08 µM) was 0.239. It also gave a relative viability (NCI-H2023; first compound 0.253 µM) of 0.29, a relative viability (NCI-H2023; first compound 0.8 µM) of 0.203 and a relative viability (NCI-H2023; first compound 2.53 µM) of 0.311. The relative viability (NCI-H2023; first compound 8 µM) was 0.262, the relative viability (NCI-H2085; first compound 0.08 µM) was 0.504 and the relative viability (NCI-H2085; first compound 0.253 µM) was 0.543. It also gave a relative viability (NCI-H2085; first compound 0.8 µM) of 0.433, a relative viability (NCI-H2085; first compound 2.53 µM) of 0.339 and a relative viability (NCI-H2085; first compound 8 µM) of 0.413. The relative viability (NCI-H358; first compound 0.08 µM) was 0.365, the relative viability (NCI-H358; first compound 0.253 µM) was 0.348 and the relative viability (NCI-H358; first compound 0.8 µM) was 0.312. For the same compound, the relative viability (NCI-H358; first compound 2.53 µM) was 0.326, the relative viability (NCI-H358; first compound 8 µM) was 0.361 and the relative viability (NCI-H441; first compound 0.08 µM) was 0.473. The relative viability (NCI-H441; first compound 0.253 µM) was 0.536, the relative viability (NCI-H441; first compound 0.8 µM) was 0.403 and the relative viability (NCI-H441; first compound 2.53 µM) was 0.418. For the same compound, the relative viability (NCI-H441; first compound 8 µM) was 0.38, the relative viability (NCI-H460; first compound 0.08 µM) was 0.396 and the relative viability (NCI-H460; first compound 0.253 µM) was 0.472. It also gave a relative viability (NCI-H460; first compound 0.8 µM) of 0.303, a relative viability (NCI-H460; first compound 8 µM) of 0.348 and a relative viability (NCI-H838; first compound 0.08 µM) of 0.43. The relative viability (NCI-H838; first compound 0.253 µM) was 0.376, the relative viability (NCI-H838; first compound 0.8 µM) was 0.444 and the relative viability (NCI-H838; first compound 2.53 µM) was 0.386. For the same compound, the relative viability (NCI-H838; first compound 8 µM) was 0.478.
